The assay has as its target T1, β-catenin/BCL9 PPI (Homo sapiens, UniProt P35222).
T1 construct: Wild-type full-length β-catenin were cloned into a pET-28b vector; made in house; host or cells: Escherichia coli BL21 DE3 (β-catenin); BCL9 peptide chemically synthesized
T1 sequence (P35222 1-781): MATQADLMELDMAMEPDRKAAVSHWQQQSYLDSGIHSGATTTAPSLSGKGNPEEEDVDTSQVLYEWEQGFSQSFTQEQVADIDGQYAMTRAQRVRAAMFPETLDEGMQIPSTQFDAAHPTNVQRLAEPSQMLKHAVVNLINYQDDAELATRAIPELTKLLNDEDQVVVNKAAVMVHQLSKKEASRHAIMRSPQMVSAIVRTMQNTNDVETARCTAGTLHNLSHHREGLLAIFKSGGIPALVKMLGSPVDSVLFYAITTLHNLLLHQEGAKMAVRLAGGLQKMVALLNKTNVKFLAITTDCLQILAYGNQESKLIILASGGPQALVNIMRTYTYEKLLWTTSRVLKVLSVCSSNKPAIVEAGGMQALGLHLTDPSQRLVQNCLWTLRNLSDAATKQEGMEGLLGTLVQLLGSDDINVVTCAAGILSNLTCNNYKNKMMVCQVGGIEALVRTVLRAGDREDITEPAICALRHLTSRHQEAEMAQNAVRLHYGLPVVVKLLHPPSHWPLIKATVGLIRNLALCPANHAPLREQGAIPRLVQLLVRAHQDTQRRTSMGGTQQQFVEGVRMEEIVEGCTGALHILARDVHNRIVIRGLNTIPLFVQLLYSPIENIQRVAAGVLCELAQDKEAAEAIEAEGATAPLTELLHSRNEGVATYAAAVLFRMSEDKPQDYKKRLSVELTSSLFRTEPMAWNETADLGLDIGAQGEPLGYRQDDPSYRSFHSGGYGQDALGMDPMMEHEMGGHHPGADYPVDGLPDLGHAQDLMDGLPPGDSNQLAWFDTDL
Nature of the assay: AlphaScreen competitive inhibition assay of the β-catenin/BCL9 PPI. In kind it is binding. Conditions: mean ± SD, triplicate, Ki derived from IC50 (Nikolovska-Coleska equation). The protocol:
Protein expression and purification. Wild-type full-length β-catenin were cloned into a pET-28b vector carrying a C-terminal 6×histidine (Novagen), and transformed into Escherichia coli BL21 DE3 (Novagen). Cells were cultured in LB medium with 30 μg/mL kanamycin until the OD600 was approximately 0.8, and then protein expression was induced with 400 μM of IPTG at 20° C. overnight. Cells were lysed by sonication. The proteins were purified by Ni-NTA affinity chromatography (30210, Qiagen) and dialyzed against a buffer containing 20 mM of Tris (pH 8.5), 100 mM NaCl, 10% glycerol, and 3 mM DTT. The purity of β-eaten in was greater than 95% as determined by SDS-PAGE gel analysis. Native non-denaturing gel electrophoresis was performed to confirm the homogeneity of the purified proteins. Thermal-shift assay was performed on an iCycler iQ Real Time Detection System (Bio-Rad) to monitor protein stability and detect protein aggregation. Protein unfolding was evaluated through measuring the S15 fluorescence changes of fluorescent dye Sypro Orange when interacting with wild-type or mutant β-catenin proteins. A temperature increment of […] was applied. CD spectra were measured on a J-815 spectropolarimeter (Jasco). All spectra were recorded at room temperature, and the baseline control containing all of the substances except protein. Sample were prepared at a concentration around 1-5 μM in a buffer of 10 mM potassium phosphate and 100 mM potassium fluoride at pH 7.0 to ensure that the transmission of light through the sample was not restricted. All proteins were stable and no aggregation was observed under storage or assay conditions. Proteins were aliquoted and stored at −80° C.
BCL9 peptide synthesis and purification. Human BCL9 (residues 350-375), and […] biotinylated human BCL9 (residues 350-375) were synthesized. All synthesized peptides were purified by HPLC with purity >95%. The structures were validated by LC/MS. The sequences are as follows (Ahx, 6-aminohexanoic acid).
AlphaScreen competitive inhibition assays. For the competitive inhibition assays of the β-catenin/BCL9 PPI, the negative control (equivalent to 0% inhibition) refers to 5.0 nM of biotinylated BCL9, 40 nM of His6-tagged β-catenin, and 10 μg/mL of donor and acceptor beads in a final volume of 25 μL assay buffer, but no tested inhibitor present. The positive control (equivalent to 100% inhibition) refers to 5.0 nM of biotinylated BCL9 and […] of donor and acceptor beads in a final volume of 25 μL assay buffer.
For the β-catenin/BCL9 assay, 5 nM of biotinylated BCL9 and 40 nM of His6-tagged β-catenin were incubated in assay buffer at 4° C. for 30 min. Different concentrations of the tested inhibitor were added and incubated in 20 μL assay buffer at 4° C. for another 1 h. All of the above assay plates were covered and gently mixed on an orbital shaker. The donor and acceptor beads were then added to the plates to a final concentration of 10 μg/mL in 25 μL assay buffer. The mixture was incubated for 1 h at 4° C. before detection. The IC50 value was determined by nonlinear least-square analysis of GraphPad Prism 5.0. The Ki values were derived from the IC50 values using a method reported by Nikolovska-Coleska et al (Nikolovska-Coleska, Z.; Wang, R.; Fang, X.; Pan, H.; Tomita, Y.; Li, P.; Roller, P. P.; Krajewski, K.; Saito, N. G.; Stuckey, J. A.; Wang, S. Development and optimization of a binding assay for the XIAP BIR3 domain using fluorescence polarization. Anal. Biochem. 2004, 332, 261-273.). The assays were conducted under the conditions required by Nikolovska-Coleska et al.'s equation for determining the Ki values. All of the experiments were performed in triplicate. The results were expressed as mean±standard deviation.
In general terms: Alpha assays give light when donor and acceptor beads are brought close together.

The mark [1] stands for this setting: experiment 1, read-out: Ki (μM ± SD) experiment 1.
Setting [2] is: experiment 2, read-out: Ki (μM ± SD) experiment 2.
The mark [3] stands for this setting: experiment 3, read-out: Ki (μM ± SD) experiment 3.
Where [4] appears, read: experiment 4, read-out: Ki (μM ± SD) experiment 4.

The text below walks through data of US12162856B2, “β-catenin and B-cell lymphoma 9 (BCL9) inhibitors” (H. LEE MOFFITT CANCER CENTER AND RESEARCH INSTITUTE, INC., priority 2019, dated 2024).

Where a name gives a salt, the structure may show the parent alone. Read-outs that look alike come from different tables or passages of the source. Some results are limits rather than exact numbers.

Regarding `NCCCC(=O)Nc1cc(F)cc(C(=O)N2CCN(C(=O)c3ccc(O[C@H]4CCNC4)c(C4CCCCC4)c3)CC2)c1` [Compound 1, (S)-4-Amino-N-(3-(4-(3-cyclohexyl-4-(pyrrolidin-3-yloxy)benzoyl)piperazine-1-carbonyl)-5-fluorophenyl) butanamide ditrifluoroacetate], the Ki (usually the equilibrium dissociation constant of an inhibitor or competing ligand from its target) under setting [1] amounted to 310 ± 48 µM and the inhibitory constant (Ki) under setting [2] turned out to be 310 ± 23 µM.
Take `NCCCCC(=O)Nc1cc(F)cc(C(=O)N2CCN(C(=O)c3ccc(O[C@H]4CCNC4)c(C4CCCCC4)c3)CC2)c1` [Compound 2, (S)-5-Amino-N-(3-(4-(3-cyclohexyl-4-(pyrrolidin-3-yloxy)benzoyl)piperazine-1-carbonyl)-5-fluorophenyl) pentanamide ditrifluoroacetate]: the Ki was found to be 230 ± 33 µM under setting [1] and 220 ± 26 µM under setting [2].
On to `CC(C)(N)C(=O)Nc1cc(F)cc(C(=O)N2CCN(C(=O)c3ccc(O[C@H]4CCNC4)c(C4CCCCC4)c3)CC2)c1` [Compound 3, (S)-2-Amino-N-(3-(4-(3-cyclohexyl-4-(pyrrolidin-3-yloxy)benzoyl)piperazine-1-carbonyl)-5-fluorophenyl)-2-methylpropanamide ditrifluoroacetate], for which the Ki runs as follows: under setting [1], 310 ± 32 µM; under setting [2], 550 ± 46 µM.
Consider `CC(C)(CN)C(=O)Nc1cc(F)cc(C(=O)N2CCN(C(=O)c3ccc(O[C@H]4CCNC4)c(C4CCCCC4)c3)CC2)c1` [Compound 4, (S)-3-Amino-N-(3-(4-(3-cyclohexyl-4-(pyrrolidin-3-yloxy)benzoyl)piperazine-1-carbonyl)-5-fluorophenyl)-2,2-dimethylpropanamide ditrifluoroacetate], for which the Ki under setting [1] turned out to be 780 ± 59 µM and the Ki under setting [2] was found to be 310 ± 43 µM.
As for `O=C(Nc1cc(F)cc(C(=O)N2CCN(C(=O)c3ccc(O[C@H]4CCNC4)c(C4CCCCC4)c3)CC2)c1)C1CCNCC1` [Compound 5, (S)—N-(3-(4-(3-cyclohexyl-4-(pyrrolidin-3-yloxy)benzoyl)piperazine-1-carbonyl)-5-fluorophenyl) piperidine-4-carboxamide ditrifluoroacetate], the Ki is, setting by setting: under setting [1], 157 ± 17 µM; under setting [2], 160 ± 22 µM.
With `CN(C(=O)CCCN)c1cc(F)cc(C(=O)N2CCN(C(=O)c3ccc(O[C@H]4CCNC4)c(C4CCCCC4)c3)CC2)c1` [Compound 6, (S)-4-amino-N-(3-(4-(3-cyclohexyl-4-(pyrrolidin-3-yloxy)benzoyl)piperazine-1-carbonyl)-5-fluorophenyl)-N-methylbutanamide ditrifluoroacetate], the Ki is, setting by setting: under setting [1], 840 ± 64 µM; under setting [2], 380 ± 44 µM.
`CN(C(=O)CCCCN)c1cc(F)cc(C(=O)N2CCN(C(=O)c3ccc(O[C@H]4CCNC4)c(C4CCCCC4)c3)CC2)c1` [Compound 7, (S)-5-amino-N-(3-(4-(3-cyclohexyl-4-(pyrrolidin-3-yloxy)benzoyl)piperazine-1-carbonyl)-5-fluorophenyl)-N-methylpentanamide ditrifluoroacetate]: the inhibition constant (Ki) is 730 ± 73 µM under setting [1] and 240 ± 33 µM under setting [2].
For the compound `CN(C(=O)C(C)(C)N)c1cc(F)cc(C(=O)N2CCN(C(=O)c3ccc(O[C@H]4CCNC4)c(C4CCCCC4)c3)CC2)c1` [Compound 8, (S)-2-amino-N-(3-(4-(3-cyclohexyl-4-(pyrrolidin-3-yloxy)benzoyl)piperazine-1-carbonyl)-5-fluorophenyl)-N,2-dimethylpropanamide ditrifluoroacetate], the Ki by setting is: under setting [1], 32 ± 4 µM; under setting [2], 71 ± 8.7 µM.
With `CN(C(=O)C(C)(C)CN)c1cc(F)cc(C(=O)N2CCN(C(=O)c3ccc(O[C@H]4CCNC4)c(C4CCCCC4)c3)CC2)c1` [Compound 9, (S)-3-amino-N-(3-(4-(3-cyclohexyl-4-(pyrrolidin-3-yloxy)benzoyl)piperazine-1-carbonyl)-5-fluorophenyl)-N,2,2-trimethylpropanamide ditrifluoroacetate], the Ki was greater than 90 µM under setting [1] and greater than 90 µM under setting [2].
Take `CN(C(=O)C1CCNCC1)c1cc(F)cc(C(=O)N2CCN(C(=O)c3ccc(O[C@H]4CCNC4)c(C4CCCCC4)c3)CC2)c1` [Compound 10, (S)—N-(3-(4-(3-cyclohexyl-4-(pyrrolidin-3-yloxy)benzoyl)piperazine-1-carbonyl)-5-fluorophenyl)-N-methylpiperidine-4-carboxamide ditrifluoroacetate]: the Ki is 420 ± 50 µM under setting [1] and 76 ± 8.3 µM under setting [2].
On to `CC(C)(CN)C(=O)Nc1cc(F)cc(C(=O)N2CCN(C(=O)c3ccc(O[C@H]4CCNC4)c(C4CCC(C(F)(F)F)CC4)c3)CC2)c1` (stereo partly drawn) [Compound 11, (S)-3-amino-N-(3-fluoro-5-(4-(4-(pyrrolidin-3-yloxy)-3-(4-(trifluoromethyl)cyclohexyl)benzoyl)piperazine-1-carbonyl)phenyl)-2,2-dimethylpropanamide ditrifluoroacetate], for which the Ki came to 170 ± 23 µM under setting [1] and 150 ± 18 µM under setting [2].
`CC(=O)Nc1cc(F)cc(C(=O)N2CCN(C(=O)c3ccc(O[C@H]4CCNC4)c(C4CCCCC4)c3)CC2)c1` [Compound 12, (S)—N-(3-(4-(3-Cyclohexyl-4-(pyrrolidin-3-yloxy)benzoyl)piperazine-1-carbonyl)-5-fluorophenyl) acetamide trifluoroacetate]: the inhibitory constant (Ki) under setting [3] came out at 61 ± 7.5 µM and the Ki under setting [4] was determined as 37 ± 3.6 µM.
For the compound `CC(=O)Nc1cc(F)cc(C(=O)N2CCN(C(=O)c3ccc(O[C@H]4CCNC4)c(C4CCCCC4)c3)[C@@H](C)C2)c1` [Compound 13, N-(3-((S)-4-(3-Cyclohexyl-4-(((S)-pyrrolidin-3-yl)oxy)benzoyl)-3-methylpiperazine-1-carbonyl)-5-fluorophenyl) acetamide trifluoroacetate], the Ki reads like this: under setting [3], 330 ± 34 µM; under setting [4], 100 ± 18 µM.
Turning to `CC[C@H]1CN(C(=O)c2cc(F)cc(NC(C)=O)c2)CCN1C(=O)c1ccc(O[C@H]2CCNC2)c(C2CCCCC2)c1` [Compound 14, N-(3-((S)-4-(3-Cyclohexyl-4-(((S)-pyrrolidin-3-yl)oxy)benzoyl)-3-ethylpiperazine-1-carbonyl)-5-fluorophenyl) acetamide trifluoroacetate], the Ki runs as follows: under setting [3], 790 ± 58 µM; under setting [4], 780 ± 130 µM.
